Source: PubChem BioAssay AID248 (DTP/NCI, 2004)
Toxic doses and inconclusive results are not listed. No stated cut-off is given here; in the data, active means T/C of 150% or more; inactive means T/C below 125%.

System: L1210 leukemia ip in BDF1 mice, survival T/C
Experiment: NCI In Vivo Anticancer Drug Screen. Data for tumor model L1210 Leukemia (intraperitoneal) in B6D2F1 (BDF1) mice
Conditions: endpoint: mean survival time, higher = longer survival
Procedure, shortened: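 Tumor cells were implanted, animals were treated, and survival was followed. The result divides the treated measurement by the vehicle-control measurement.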

[1] = dose: 400.0 mg/kg/injection, schedule: Q01DX009 (ip), vehicle: saline with Tween-80
[2] = dose: 100.0 mg/kg/injection, schedule: Q04DX003 (ip), vehicle: saline with Tween-80
[3] = dose: 200.0 mg/kg/injection, schedule: Q04DX003 (ip), vehicle: saline with Tween-80
[4] = dose: 400.0 mg/kg/injection, schedule: Q04DX003 (ip), vehicle: saline with Tween-80
[5] = dose: 100.0 mg/kg/injection, schedule: Q01DX009 (ip), vehicle: Klucel (hydroxypropylcellulose) (HPC)

Measured: T/C

Cc1ccc([N+](=O)[O-])cc1NC(=O)COc1ccc(Cl)cc1
inactive: dose: 100.0 mg/kg/injection, schedule: Q01DX009 (ip), vehicle: saline with Tween-80 91 % of control | dose: 200.0 mg/kg/injection, schedule: Q01DX009 (ip), vehicle: saline with Tween-80 89 % of control | [1] 89 % of control

Cc1c(Cl)c(Cl)c(Cl)c(Cl)c1Cl
inactive: [2] 101 % of control | [3] 95 % of control | [4] 95 % of control

O=C(N=c1cc(-c2ccc(Cl)cc2)ss1)C(Cc1ccccc1)N1C(=O)c2ccccc2C1=O (configuration not stated)
inactive: dose: 25.0 mg/kg/injection, schedule: Q01DX009 (ip), vehicle: water 102 % of control | dose: 50.0 mg/kg/injection, schedule: Q01DX009 (ip), vehicle: water 102 % of control | dose: 100.0 mg/kg/injection, schedule: Q01DX009 (ip), vehicle: water 96 % of control | dose: 200.0 mg/kg/injection, schedule: Q01DX009 (ip), vehicle: water 95 % of control | dose: 400.0 mg/kg/injection, schedule: Q01DX009 (ip), vehicle: water 87 % of control

O=C(CC(=O)CC(O)(C(F)(F)F)C(F)(F)F)CC(O)(C(F)(F)F)C(F)(F)F
inactive: dose: 2.5 mg/kg/injection, schedule: Q01DX009 (ip), vehicle: saline 97 % of control | dose: 5.0 mg/kg/injection, schedule: Q01DX009 (ip), vehicle: saline 95 % of control

N#CCCCCCCCCCC#N
inactive: dose: 10.0 mg/kg/injection, schedule: Q04DX003 (ip), vehicle: Klucel (hydroxypropylcellulose) (HPC) 93 % of control | dose: 20.0 mg/kg/injection, schedule: Q04DX003 (ip), vehicle: Klucel (hydroxypropylcellulose) (HPC) 100 % of control | dose: 40.0 mg/kg/injection, schedule: Q04DX003 (ip), vehicle: Klucel (hydroxypropylcellulose) (HPC) 109 % of control | [5] 96 % of control

COC(=O)C(CCCN(C)C)(CCCN(C)C)c1cccc2ccccc12
inactive: [2] 96 % of control

Cc1ccc(OCc2c(COc3ccc(Cl)cc3)sc3ccc(Cl)cc23)cc1
inactive: dose: 12.5 mg/kg/injection, schedule: Q01DX009 (ip), vehicle: saline with Tween-80 97 % of control | dose: 25.0 mg/kg/injection, schedule: Q01DX009 (ip), vehicle: saline with Tween-80 95 % of control | dose: 25.0 mg/kg/injection, schedule: Q04DX003 (ip), vehicle: saline with Tween-80 87 % of control | dose: 50.0 mg/kg/injection, schedule: Q01DX009 (ip), vehicle: saline with Tween-80 101 % of control | dose: 50.0 mg/kg/injection, schedule: Q04DX003 (ip), vehicle: saline with Tween-80 87 % of control

CC12CCCCC1CC/C(=C\c1ccco1)C2=O (configuration not stated)
inactive: dose: 100.0 mg/kg/injection, schedule: Q01DX009 (ip), vehicle: saline 98 % of control | dose: 100.0 mg/kg/injection, schedule: Q04DX003 (ip), vehicle: saline 97 % of control | dose: 200.0 mg/kg/injection, schedule: Q01DX009 (ip), vehicle: saline 98 % of control | dose: 200.0 mg/kg/injection, schedule: Q04DX003 (ip), vehicle: saline 100 % of control | dose: 400.0 mg/kg/injection, schedule: Q01DX009 (ip), vehicle: saline 95 % of control | dose: 400.0 mg/kg/injection, schedule: Q04DX003 (ip), vehicle: saline 100 % of control

NC1CCCN(Cc2ccccc2)C1 (configuration not stated)
inactive: dose: 75.0 mg/kg/injection, schedule: Q04DX003 (ip), vehicle: saline 104 % of control | dose: 150.0 mg/kg/injection, schedule: Q04DX003 (ip), vehicle: saline 100 % of control

CCCCCCC(=O)CCCCCCCCCCCCC(=O)OC
inactive: [1] 88 % of control

CC(C)c1cccc(C(C)C)c1OCCOC(=O)Nc1ccc(F)cc1
inactive: [5] 101 % of control | dose: 200.0 mg/kg/injection, schedule: Q01DX009 (ip), vehicle: Klucel (hydroxypropylcellulose) (HPC) 117 % of control | dose: 400.0 mg/kg/injection, schedule: Q01DX009 (ip), vehicle: Klucel (hydroxypropylcellulose) (HPC) 109 % of control

CNc1cc(Cl)c(C#N)c(Cl)c1
inactive: dose: 100.0 mg/kg/injection, schedule: Q01DX001 (ip), vehicle: Klucel (hydroxypropylcellulose) (HPC) 105 % of control | dose: 100.0 mg/kg/injection, schedule: Q04DX003 (ip), vehicle: Klucel (hydroxypropylcellulose) (HPC) 94 % of control | dose: 200.0 mg/kg/injection, schedule: Q01DX001 (ip), vehicle: Klucel (hydroxypropylcellulose) (HPC) 105 % of control | dose: 200.0 mg/kg/injection, schedule: Q04DX003 (ip), vehicle: Klucel (hydroxypropylcellulose) (HPC) 100 % of control | dose: 400.0 mg/kg/injection, schedule: Q01DX001 (ip), vehicle: Klucel (hydroxypropylcellulose) (HPC) 103 % of control | dose: 400.0 mg/kg/injection, schedule: Q04DX003 (ip), vehicle: Klucel (hydroxypropylcellulose) (HPC) 99 % of control

COc1c2c(c(OC)c3c1C(=O)c1ccccc1C3=O)CC(C(C)=O)CC2 (configuration not stated)
inactive: [2] 94 % of control | [3] 92 % of control | [4] 92 % of control

NOC(=O)C1C(c2ccccc2)C1(c1ccccc1)c1ccccc1 (configuration not stated)
inactive: dose: 100.0 mg/kg/injection, schedule: Q01DX001 (ip), vehicle: steriod suspending solution 104 % of control | dose: 200.0 mg/kg/injection, schedule: Q01DX001 (ip), vehicle: steriod suspending solution 95 % of control | dose: 400.0 mg/kg/injection, schedule: Q01DX001 (ip), vehicle: steriod suspending solution 117 % of control
